Experimental data as given in article PMC9481570, “A small molecule antagonist of SMN disrupts the interaction between SMN and RNAP II” (Nature Communications, 2022).
Where “and” joins values, the source holds several entries; their conditions need not be identical. Equal entries are not always repeated.

Columns and labels:
Assay in all cases: Affinity-purification and mass spectrometry (AP-MS) chemical proteomics, all proteins;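 as to Difference: 200 µM free competitor with 20 µM biotin probe overnight in lysate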
Assay type in all cases: binding
[1] = target: T1, proteins displaced from immobilized biotin-Cmpd 1 pulldowns (U2OS cell lysate) (Homo sapiens, UniProt P05089); conditions: GN=ARG1 (P05089)
T1 construct: endogenous in cells; host or cells: U2OS
Experimental: (§1) The samples for AP-MS were prepared following pulldown procedure as previously described with minor modifications. Briefly, U2OS cells were lysed in RIPA buffer and the cell lysate was equally divided into two groups: (1) DMSO group (control group): the cell lysate was incubated with 20 μM biotin-labeled compound 1; (2) Cpmd 1 group (sample group): the cell lysate was incubated with 20 μM biotin-labeled compound 1 and 200 μM free compound 1. Each group contains three biological replicates. They were incubated overnight at 4 °C, then 30 μL streptavidin beads (Thermo Fisher, 20353) was added and incubated at 4 °C for 1 h. The beads were then washed with RIPA buffer for 3 times, 10 min/time.
(§2) Beads were rinsed twice with 50 mM TEAB, pH 7.55, before eluting proteins with 25 μL of 5% SDS, 50 mM TEAB, pH 7.55. The sample was then centrifuged at 17,000 × g for 10 min to remove any debris. Proteins were reduced with 20 mM TCEP (Thermo Fisher, 77720) and incubated at 65 °C for 30 min. The sample was cooled to room temperature and 1 μL of 0.5 M iodoacetamide acid was added and allowed to react for 20 min in dark. Phosphoric acid (12%, 2.75 μL) was added to the protein solution, followed by adding 165 μL of binding buffer (90% methanol, 100 mM TEAB, pH 7.1). The resulting solution was added to S-Trap spin column (protifi.com) and passed through the column using a bench top centrifuge (30 s spin at 4000 × g). The spin column was washed with 400 μL of binding buffer and centrifuged. This step was repeated two more times. Then trypsin was added to the protein mixture at a mass ratio of 1:25 in 50 mM TEAB, pH 8.0, and the sample was incubated at 37 °C for 4 h. Peptides were eluted with 80 μL of 50 mM TEAB, followed by 80 μL of 0.2% formic acid, and finally 80 μL of 50% acetonitrile, 0.2% formic acid. The combined peptide solution was then dried in a speed vac and resuspended in 2% acetonitrile, 0.1% formic acid, 97.9% water and placed in an autosampler vial.
(§3) Samples were analyzed by nanoLC-MS/MS (nanoRSLC, Thermo Fisher) using an Aurora series (Ion Opticks) reversed phase HPLC column (25 cm length × 75 µm inner diameter) and directly injected to an Orbitrap Eclipse (Thermo Fisher) using a 120 min gradient (mobile phase A = 0.1% formic acid, mobile phase B = 99.9% acetonitrile with 0.1% formic acid; hold 2% B for 5 min, 2–6% B in 0.1 min, 6–25% in 100 min, 25–50% in 15 min) at a flow rate of 350 nL/min. Eluted peptide ions were analyzed using a data-dependent acquisition (DDA) method with resolution settings of 120,000 and 15,000 (at m/z 200) for MS1 and MS2 scans, respectively. DDA-selected peptides were fragmented using stepped high energy collisional dissociation (27, 32, and 37%).
(§4) The data of AP-MS were analyzed as a previously described method with minor modifications. Briefly, the raw MS files were searched with MaxQuant software (version 1.6.1.1, www.maxquant.org)[56] against the UniProt human protein database (www.uniprot.org) concatenated with common contaminants and the decoy database. The mass tolerance for precursor ions was set to 20 ppm and 4.5 ppm for the first and main search, respectively. The cysteine carbamidomethylation was set as fixed modification and methionine oxidation and N-terminal acetylation as variable modifications. Enzyme specificity was set to trypsin and a maximum missed cleavage was set as 2. The 1% false discovery rate (FDR) at both peptide and protein levels was applied for the analysis. Relative protein quantification was based on the label-free quantification incorporated in the MaxQuant software. The iBAQ intensity of proteins was obtained for the control and experimental samples. The missing iBAQ intensity was replaced by a random number, which was calculated from a normal distribution with a width of 0.3 and a downshift of 1.8 defined by Perseus software (version 1.6.5.0). The P-value was calculated by performing two-sample Student’s t-test. […]

[2] = target: T2, proteins displaced from immobilized biotin-Cmpd 1 pulldowns (U2OS cell lysate) (Homo sapiens, UniProt P20042); conditions: GN=EIF2S2 (P20042)
T2 construct: endogenous in cells; host or cells: U2OS
Experimental: as §1, §2, §3, §4

[3] = target: T3, proteins displaced from immobilized biotin-Cmpd 1 pulldowns (U2OS cell lysate) (Homo sapiens, UniProt Q96HE9); conditions: GN=PRR11 (Q96HE9)
T3 construct: endogenous in cells; host or cells: U2OS
Experimental: as §1, §2, §3, §4

[4] = target: T4, proteins displaced from immobilized biotin-Cmpd 1 pulldowns (U2OS cell lysate) (Homo sapiens, UniProt P62136); conditions: GN=PPP1CA (P62136)
T4 construct: endogenous in cells; host or cells: U2OS
Experimental: as §1, §2, §3, §4

[5] = target: T5, proteins displaced from immobilized biotin-Cmpd 1 pulldowns (U2OS cell lysate) (Homo sapiens, UniProt P06733); conditions: GN=ENO1 (P06733)
T5 construct: endogenous in cells; host or cells: U2OS
Experimental: as §1, §2, §3, §4

[6] = target: T6, proteins displaced from immobilized biotin-Cmpd 1 pulldowns (U2OS cell lysate) (Homo sapiens, UniProt P54098); conditions: GN=POLG (P54098)
T6 construct: endogenous in cells; host or cells: U2OS
Experimental: as §1, §2, §3, §4

[7] = target: T7, proteins displaced from immobilized biotin-Cmpd 1 pulldowns (U2OS cell lysate) (Homo sapiens, UniProt P40939); conditions: GN=HADHA (P40939)
T7 construct: endogenous in cells; host or cells: U2OS
Experimental: as §1, §2, §3, §4

[8] = target: T8, proteins displaced from immobilized biotin-Cmpd 1 pulldowns (U2OS cell lysate) (Homo sapiens, UniProt Q96AG4); conditions: GN=LRRC59 (Q96AG4)
T8 construct: endogenous in cells; host or cells: U2OS
Experimental: as §1, §2, §3, §4

[9] = target: T9, proteins displaced from immobilized biotin-Cmpd 1 pulldowns (U2OS cell lysate) (Homo sapiens, UniProt Q9NUQ6); conditions: GN=SPATS2L (Q9NUQ6)
T9 construct: endogenous in cells; host or cells: U2OS
Experimental: as §1, §2, §3, §4

[10] = target: T10, proteins displaced from immobilized biotin-Cmpd 1 pulldowns (U2OS cell lysate) (Homo sapiens, UniProt P35606); conditions: GN=COPB2 (P35606)
T10 construct: endogenous in cells; host or cells: U2OS
Experimental: as §1, §2, §3, §4

T3 sequence (Q96HE9 whole entry): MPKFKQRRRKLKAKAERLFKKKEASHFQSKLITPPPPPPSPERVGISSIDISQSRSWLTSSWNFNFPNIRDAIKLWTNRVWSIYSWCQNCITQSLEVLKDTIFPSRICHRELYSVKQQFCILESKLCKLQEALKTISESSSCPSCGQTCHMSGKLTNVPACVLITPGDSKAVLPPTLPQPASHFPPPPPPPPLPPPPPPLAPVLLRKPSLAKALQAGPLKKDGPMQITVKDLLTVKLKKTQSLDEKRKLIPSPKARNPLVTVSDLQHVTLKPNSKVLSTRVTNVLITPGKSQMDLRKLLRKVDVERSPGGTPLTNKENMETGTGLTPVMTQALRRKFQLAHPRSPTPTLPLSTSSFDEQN
T1 sequence (P05089 whole entry): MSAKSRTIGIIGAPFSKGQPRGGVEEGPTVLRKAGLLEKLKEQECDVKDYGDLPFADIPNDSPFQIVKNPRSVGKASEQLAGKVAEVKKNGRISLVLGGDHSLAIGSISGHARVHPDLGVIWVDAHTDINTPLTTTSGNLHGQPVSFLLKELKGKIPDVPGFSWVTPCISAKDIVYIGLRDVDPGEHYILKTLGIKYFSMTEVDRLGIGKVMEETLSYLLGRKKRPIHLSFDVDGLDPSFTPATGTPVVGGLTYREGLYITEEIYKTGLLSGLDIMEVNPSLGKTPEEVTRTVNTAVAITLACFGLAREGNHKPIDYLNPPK
T7 sequence (P40939 37-763): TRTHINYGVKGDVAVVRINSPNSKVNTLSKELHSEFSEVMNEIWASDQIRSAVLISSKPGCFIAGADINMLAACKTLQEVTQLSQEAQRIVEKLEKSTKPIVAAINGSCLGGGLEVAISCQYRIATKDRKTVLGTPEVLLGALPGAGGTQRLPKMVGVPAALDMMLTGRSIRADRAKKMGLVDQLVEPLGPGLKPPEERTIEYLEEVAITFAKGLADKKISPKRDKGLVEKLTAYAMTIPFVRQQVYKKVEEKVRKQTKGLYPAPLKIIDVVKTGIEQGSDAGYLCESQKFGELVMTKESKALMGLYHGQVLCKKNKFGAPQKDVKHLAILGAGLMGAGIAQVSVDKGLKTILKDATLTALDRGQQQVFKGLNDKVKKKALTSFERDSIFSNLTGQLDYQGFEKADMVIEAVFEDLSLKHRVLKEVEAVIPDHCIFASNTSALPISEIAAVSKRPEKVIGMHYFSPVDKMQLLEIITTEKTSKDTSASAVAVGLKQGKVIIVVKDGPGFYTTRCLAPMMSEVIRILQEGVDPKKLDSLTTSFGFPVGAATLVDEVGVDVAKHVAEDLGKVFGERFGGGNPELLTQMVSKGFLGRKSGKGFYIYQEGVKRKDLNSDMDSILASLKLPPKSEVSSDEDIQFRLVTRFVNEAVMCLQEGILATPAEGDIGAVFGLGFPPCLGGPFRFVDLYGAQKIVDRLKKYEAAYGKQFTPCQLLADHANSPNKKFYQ
T10 sequence (P35606 whole entry): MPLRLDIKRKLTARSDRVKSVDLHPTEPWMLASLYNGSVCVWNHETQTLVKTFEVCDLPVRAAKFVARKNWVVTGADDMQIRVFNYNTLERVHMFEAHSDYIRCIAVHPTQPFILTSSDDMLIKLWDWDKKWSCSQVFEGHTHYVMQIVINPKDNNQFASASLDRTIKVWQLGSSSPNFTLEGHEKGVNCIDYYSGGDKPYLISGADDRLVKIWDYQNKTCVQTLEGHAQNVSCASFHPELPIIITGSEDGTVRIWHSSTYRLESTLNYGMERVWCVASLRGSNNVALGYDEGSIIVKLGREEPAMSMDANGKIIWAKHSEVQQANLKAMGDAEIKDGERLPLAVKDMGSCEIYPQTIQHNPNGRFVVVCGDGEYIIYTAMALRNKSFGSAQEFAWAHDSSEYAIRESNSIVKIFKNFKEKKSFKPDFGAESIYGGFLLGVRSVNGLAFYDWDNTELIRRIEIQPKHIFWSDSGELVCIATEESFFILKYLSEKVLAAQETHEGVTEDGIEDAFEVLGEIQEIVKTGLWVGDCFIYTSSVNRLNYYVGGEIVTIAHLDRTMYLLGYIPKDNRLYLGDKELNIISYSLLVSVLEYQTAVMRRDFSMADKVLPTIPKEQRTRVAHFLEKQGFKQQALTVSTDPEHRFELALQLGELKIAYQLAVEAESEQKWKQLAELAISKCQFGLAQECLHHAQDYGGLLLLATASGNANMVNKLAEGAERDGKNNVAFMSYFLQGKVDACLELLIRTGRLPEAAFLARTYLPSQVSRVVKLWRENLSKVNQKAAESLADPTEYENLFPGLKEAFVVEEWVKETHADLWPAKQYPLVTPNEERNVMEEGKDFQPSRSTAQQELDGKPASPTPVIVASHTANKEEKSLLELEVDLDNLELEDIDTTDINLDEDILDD
T4 sequence (P62136 whole entry): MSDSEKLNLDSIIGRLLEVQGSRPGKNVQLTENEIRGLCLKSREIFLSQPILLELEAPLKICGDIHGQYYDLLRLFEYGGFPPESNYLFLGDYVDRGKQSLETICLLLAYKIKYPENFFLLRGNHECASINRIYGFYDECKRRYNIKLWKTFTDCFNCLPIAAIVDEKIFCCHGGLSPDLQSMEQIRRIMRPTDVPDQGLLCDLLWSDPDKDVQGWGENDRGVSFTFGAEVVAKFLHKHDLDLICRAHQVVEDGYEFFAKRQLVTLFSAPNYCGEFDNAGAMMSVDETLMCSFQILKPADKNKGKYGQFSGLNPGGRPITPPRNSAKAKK
T9 sequence (Q9NUQ6 whole entry): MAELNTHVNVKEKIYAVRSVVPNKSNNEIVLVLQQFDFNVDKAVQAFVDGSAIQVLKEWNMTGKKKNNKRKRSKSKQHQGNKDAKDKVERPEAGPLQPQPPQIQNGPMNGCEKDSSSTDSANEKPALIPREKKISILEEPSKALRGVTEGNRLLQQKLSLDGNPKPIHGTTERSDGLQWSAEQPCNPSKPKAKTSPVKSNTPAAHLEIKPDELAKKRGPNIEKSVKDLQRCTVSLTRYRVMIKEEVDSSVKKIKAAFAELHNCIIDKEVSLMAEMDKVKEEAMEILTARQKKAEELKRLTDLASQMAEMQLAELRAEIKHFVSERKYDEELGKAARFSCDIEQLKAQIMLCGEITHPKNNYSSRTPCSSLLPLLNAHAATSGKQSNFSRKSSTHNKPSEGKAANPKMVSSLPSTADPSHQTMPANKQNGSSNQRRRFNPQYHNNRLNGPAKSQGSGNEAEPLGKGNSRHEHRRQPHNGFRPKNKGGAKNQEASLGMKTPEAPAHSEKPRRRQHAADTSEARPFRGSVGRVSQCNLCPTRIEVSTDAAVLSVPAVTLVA
T2 sequence (P20042 whole entry): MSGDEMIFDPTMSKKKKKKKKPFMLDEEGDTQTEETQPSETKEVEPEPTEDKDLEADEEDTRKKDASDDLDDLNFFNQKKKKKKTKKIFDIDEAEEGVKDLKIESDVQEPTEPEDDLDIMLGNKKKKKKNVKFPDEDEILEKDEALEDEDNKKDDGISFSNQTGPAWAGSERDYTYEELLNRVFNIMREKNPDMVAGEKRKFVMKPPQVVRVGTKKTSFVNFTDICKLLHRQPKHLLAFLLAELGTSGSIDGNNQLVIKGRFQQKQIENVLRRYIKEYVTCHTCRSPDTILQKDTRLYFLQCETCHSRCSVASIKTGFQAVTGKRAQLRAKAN
T8 sequence (Q96AG4 whole entry): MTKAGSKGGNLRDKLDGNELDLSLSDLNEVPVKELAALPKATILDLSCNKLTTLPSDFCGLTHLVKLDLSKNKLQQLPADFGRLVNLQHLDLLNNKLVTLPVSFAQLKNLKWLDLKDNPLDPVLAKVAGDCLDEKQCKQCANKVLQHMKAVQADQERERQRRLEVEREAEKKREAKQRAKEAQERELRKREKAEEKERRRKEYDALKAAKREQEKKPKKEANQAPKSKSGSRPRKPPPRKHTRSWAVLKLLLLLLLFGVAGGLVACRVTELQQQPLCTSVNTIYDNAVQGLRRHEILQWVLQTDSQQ
T5 sequence (P06733 whole entry): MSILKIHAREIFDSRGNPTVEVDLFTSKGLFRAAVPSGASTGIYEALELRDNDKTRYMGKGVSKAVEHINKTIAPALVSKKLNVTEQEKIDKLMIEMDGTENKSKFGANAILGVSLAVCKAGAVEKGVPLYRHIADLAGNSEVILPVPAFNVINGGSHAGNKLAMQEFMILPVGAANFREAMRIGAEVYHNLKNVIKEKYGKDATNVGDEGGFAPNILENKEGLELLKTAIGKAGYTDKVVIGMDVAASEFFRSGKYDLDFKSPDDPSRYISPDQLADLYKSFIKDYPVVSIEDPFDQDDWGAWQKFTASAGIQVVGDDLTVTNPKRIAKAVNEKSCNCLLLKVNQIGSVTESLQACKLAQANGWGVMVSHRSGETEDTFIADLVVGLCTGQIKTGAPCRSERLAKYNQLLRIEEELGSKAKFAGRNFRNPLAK

## Cn1c2c(c(=N)c3c1CCC3)CCC2 [Compound 1, 4-methyl-2,3,4,5,6,7-hexahydrodicyclopenta[b,e]pyridin-8(1H)-imine]
[1]; Cmpd minus DMSO, -LOG(P-value) 0.796604
  Difference: -1.277
[1]; replicates 1-3
  iBAQ Cmpd: 21.3858 and 21.3863 and 20.4096
[2]; Cmpd minus DMSO, -LOG(P-value) 0.750637
  Difference: -2.049
[2]; replicates 1-3
  iBAQ Cmpd: 14.3581 and 16.9929 and 16.8192
[3]; Cmpd minus DMSO, -LOG(P-value) 0.979867
  Difference: 2.154
[3]; replicates 1-3
  iBAQ Cmpd: 17.2458 and 16.9213 and 18.1218
[4]; Cmpd minus DMSO, -LOG(P-value) 1.15373
  Difference: 2.296
[4]; replicates 1-3
  iBAQ Cmpd: 15.2178 and 17.9982 and 17.5212
[5]; Cmpd minus DMSO, -LOG(P-value) 1.38674
  Difference: -0.4405
[5]; replicates 1-3
  iBAQ Cmpd: 21.5649 and 21.7568 and 21.506
[6]; Cmpd minus DMSO, -LOG(P-value) 0.92162
  Difference: 0.489
[6]; replicates 1-3
  iBAQ Cmpd: 17.0695 and 17.0761 and 17.6776
[7]; Cmpd minus DMSO, -LOG(P-value) 0.714126
  Difference: 0.947
[7]; replicates 1-3
  iBAQ Cmpd: 19.348 and 18.8178 and 18.412
[8]; Cmpd minus DMSO, -LOG(P-value) 0.840063
  Difference: -2.23
[8]; replicates 1-3
  iBAQ Cmpd: 17.7382 and 14.7804 and 13.8761
[9]; Cmpd minus DMSO, -LOG(P-value) 0.875271
  Difference: 3.1666
[9]; replicates 1-3
  iBAQ Cmpd: 21.4367 and 18.8839 and 18.3449
[10]; Cmpd minus DMSO, -LOG(P-value) 1.0232
  Difference: 1.032
[10]; replicates 1-3
  iBAQ Cmpd: 16.3801 and 15.3301 and 15.6123
